According to PubChem BioAssay AID1259407 (Chemical Carcinogenesis Research Information System (CCRIS), 2018):
The source made the active and inactive calls. How the calls were made is not given here.

Tested on: CCRIS mutagenicity, Ames/micronucleus/aberration tests
Test: CCRIS mutagenicity studies
[1] = Test System: AMES SALMONELLA TYPHIMURIUM, Strain/Indicator: TA98, Metabolic Activation: NONE, Method: STANDARD PLATE
[2] = Test System: AMES SALMONELLA TYPHIMURIUM, Strain/Indicator: TA98, Metabolic Activation: RAT, LIVER, S-9, AROCLOR 1254, Method: STANDARD PLATE
[3] = Test System: AMES SALMONELLA TYPHIMURIUM, Strain/Indicator: TA100, Metabolic Activation: NONE, Method: STANDARD PLATE
[4] = Test System: AMES SALMONELLA TYPHIMURIUM, Strain/Indicator: TA100, Metabolic Activation: RAT, LIVER, S-9, AROCLOR 1254, Method: STANDARD PLATE
[5] = Test System: AMES SALMONELLA TYPHIMURIUM, Strain/Indicator: TA1535, Metabolic Activation: NONE, Method: STANDARD PLATE
[6] = Test System: AMES SALMONELLA TYPHIMURIUM, Strain/Indicator: TA1535, Metabolic Activation: RAT, LIVER, S-9, AROCLOR 1254, Method: STANDARD PLATE
[7] = Test System: AMES SALMONELLA TYPHIMURIUM, Strain/Indicator: TA1537, Metabolic Activation: NONE, Method: STANDARD PLATE
[8] = Test System: AMES SALMONELLA TYPHIMURIUM, Strain/Indicator: TA1537, Metabolic Activation: RAT, LIVER, S-9, AROCLOR 1254, Method: STANDARD PLATE
[9] = Test System: AMES SALMONELLA TYPHIMURIUM, Strain/Indicator: TA1538, Metabolic Activation: NONE, Method: STANDARD PLATE
[10] = Test System: AMES SALMONELLA TYPHIMURIUM, Strain/Indicator: TA1538, Metabolic Activation: RAT, LIVER, S-9, AROCLOR 1254, Method: STANDARD PLATE

What does the source list for `CC(=O)O[C@]1(C(C)=O)CC[C@H]2[C@@H]3C[C@H](C)C4=CC(=O)CC[C@]4(C)[C@H]3CC[C@@]21C`?
mutagenic call (Test System: AMES SALMONELLA TYPHIMURIUM, Strain/Indicator: TA97, Metabolic Activation: HAMSTER, LIVER, S-9, AROCLOR 1254 (10 OR 30%), Method: PREINCUBATION): inactive; negative; mutagenic call (Test System: AMES SALMONELLA TYPHIMURIUM, Strain/Indicator: TA97, Metabolic Activation: NONE, Method: PREINCUBATION): inactive; negative; mutagenic call (Test System: AMES SALMONELLA TYPHIMURIUM, Strain/Indicator: TA97, Metabolic Activation: RAT, LIVER, S-9, AROCLOR 1254 (10 OR 30%), Method: PREINCUBATION): inactive; negative; mutagenic call (Test System: AMES SALMONELLA TYPHIMURIUM, Strain/Indicator: TA98, Metabolic Activation: HAMSTER, LIVER, S-9, AROCLOR 1254 (10 OR 30%), Method: PREINCUBATION): inactive; negative; mutagenic call (Test System: AMES SALMONELLA TYPHIMURIUM, Strain/Indicator: TA98, Metabolic Activation: NONE, Method: PREINCUBATION): inactive; negative; mutagenic call [1]: inactive; negative; mutagenic call (Test System: AMES SALMONELLA TYPHIMURIUM, Strain/Indicator: TA98, Metabolic Activation: RAT, LIVER, S-9, AROCLOR 1254 (10 OR 30%), Method: PREINCUBATION): inactive; negative; mutagenic call [2]: inactive; negative; mutagenic call (Test System: AMES SALMONELLA TYPHIMURIUM, Strain/Indicator: TA100, Metabolic Activation: HAMSTER, LIVER, S-9, AROCLOR 1254 (10 OR 30%), Method: PREINCUBATION): inactive; negative; mutagenic call (Test System: AMES SALMONELLA TYPHIMURIUM, Strain/Indicator: TA100, Metabolic Activation: NONE, Method: PREINCUBATION): inactive; negative; mutagenic call [3]: inactive; negative; mutagenic call (Test System: AMES SALMONELLA TYPHIMURIUM, Strain/Indicator: TA100, Metabolic Activation: RAT, LIVER, S-9, AROCLOR 1254 (10 OR 30%), Method: PREINCUBATION): inactive; negative; mutagenic call [4]: inactive; negative; mutagenic call (Test System: AMES SALMONELLA TYPHIMURIUM, Strain/Indicator: TA1535, Metabolic Activation: HAMSTER, LIVER, S-9, AROCLOR 1254 (10 OR 30%), Method: PREINCUBATION): inactive; negative; mutagenic call (Test System: AMES SALMONELLA TYPHIMURIUM, Strain/Indicator: TA1535, Metabolic Activation: NONE, Method: PREINCUBATION): inactive; negative; mutagenic call [5]: inactive; negative; mutagenic call (Test System: AMES SALMONELLA TYPHIMURIUM, Strain/Indicator: TA1535, Metabolic Activation: RAT, LIVER, S-9, AROCLOR 1254 (10 OR 30%), Method: PREINCUBATION): inactive; negative; mutagenic call [6]: inactive; negative; mutagenic call [7]: inactive; negative; mutagenic call [8]: inactive; negative; mutagenic call [9]: inactive; negative; mutagenic call [10]: inactive; negative; mutagenic call (Test System: CHINESE HAMSTER V-79, Strain/Indicator: V-79 (HGPRT)/6-THIOGUANINE, Metabolic Activation: NONE): inactive; negative; mutagenic call (Test System: CHINESE HAMSTER V-79, Strain/Indicator: V-79 (HGPRT)/6-THIOGUANINE, Metabolic Activation: RAT, LIVER, S-9, AROCLOR 1254): inactive; negative

For `COC(=O)Nc1nc2ccc(O)cc2[nH]1`, which mutagenic call [1] is on record?
Its mutagenic call is “inactive; negative”.

What about the mutagenic call [2] of the same molecule?
The mutagenic call was “inactive; negative”.

And the mutagenic call [3]?
The mutagenic call was “inactive; negative”.

And the mutagenic call [4]?
The mutagenic call was “inactive; negative”.

What about the mutagenic call [5] of the same molecule?
Its mutagenic call is “inactive; negative”.

And the mutagenic call [6]?
Its mutagenic call is “inactive; negative”.

What about the mutagenic call [7] of the same molecule?
The mutagenic call was “inactive; negative”.

What about the mutagenic call [8] of the same molecule?
The mutagenic call was “inactive; negative”.

What does the source list for `FC(C(F)(F)F)C(F)(F)F`?
mutagenic call (Test System: AMES SALMONELLA TYPHIMURIUM, Strain/Indicator: TA98, Metabolic Activation: NONE, Method: DESICCATOR): inactive; negative; mutagenic call (Test System: AMES SALMONELLA TYPHIMURIUM, Strain/Indicator: TA98, Metabolic Activation: NONE, Method: VAPOR CHAMBER): inactive; negative; mutagenic call (Test System: AMES SALMONELLA TYPHIMURIUM, Strain/Indicator: TA98, Metabolic Activation: RAT, LIVER, S-9, AROCLOR 1254, Method: DESICCATOR): inactive; negative; mutagenic call (Test System: AMES SALMONELLA TYPHIMURIUM, Strain/Indicator: TA98, Metabolic Activation: RAT, LIVER, S-9, AROCLOR 1254, Method: VAPOR CHAMBER): inactive; negative; mutagenic call (Test System: AMES SALMONELLA TYPHIMURIUM, Strain/Indicator: TA100, Metabolic Activation: NONE, Method: DESICCATOR): inactive; negative; mutagenic call (Test System: AMES SALMONELLA TYPHIMURIUM, Strain/Indicator: TA100, Metabolic Activation: NONE, Method: VAPOR CHAMBER): inactive; negative; mutagenic call (Test System: AMES SALMONELLA TYPHIMURIUM, Strain/Indicator: TA100, Metabolic Activation: RAT, LIVER, S-9, AROCLOR 1254, Method: DESICCATOR): inactive; negative; mutagenic call (Test System: AMES SALMONELLA TYPHIMURIUM, Strain/Indicator: TA100, Metabolic Activation: RAT, LIVER, S-9, AROCLOR 1254, Method: VAPOR CHAMBER): inactive; negative; mutagenic call (Test System: AMES SALMONELLA TYPHIMURIUM, Strain/Indicator: TA1535, Metabolic Activation: NONE, Method: DESICCATOR): inactive; negative; mutagenic call (Test System: AMES SALMONELLA TYPHIMURIUM, Strain/Indicator: TA1535, Metabolic Activation: NONE, Method: VAPOR CHAMBER): inactive; negative; mutagenic call (Test System: AMES SALMONELLA TYPHIMURIUM, Strain/Indicator: TA1535, Metabolic Activation: RAT, LIVER, S-9, AROCLOR 1254, Method: DESICCATOR): inactive; negative; mutagenic call (Test System: AMES SALMONELLA TYPHIMURIUM, Strain/Indicator: TA1535, Metabolic Activation: RAT, LIVER, S-9, AROCLOR 1254, Method: VAPOR CHAMBER): inactive; negative; mutagenic call (Test System: AMES SALMONELLA TYPHIMURIUM, Strain/Indicator: TA1537, Metabolic Activation: NONE, Method: DESICCATOR): inactive; negative; mutagenic call (Test System: AMES SALMONELLA TYPHIMURIUM, Strain/Indicator: TA1537, Metabolic Activation: NONE, Method: VAPOR CHAMBER): inactive; negative; mutagenic call (Test System: AMES SALMONELLA TYPHIMURIUM, Strain/Indicator: TA1537, Metabolic Activation: RAT, LIVER, S-9, AROCLOR 1254, Method: DESICCATOR): inactive; negative; mutagenic call (Test System: AMES SALMONELLA TYPHIMURIUM, Strain/Indicator: TA1537, Metabolic Activation: RAT, LIVER, S-9, AROCLOR 1254, Method: VAPOR CHAMBER): inactive; negative; mutagenic call (Test System: AMES SALMONELLA TYPHIMURIUM, Strain/Indicator: TA1538, Metabolic Activation: NONE, Method: DESICCATOR): inactive; negative; mutagenic call (Test System: AMES SALMONELLA TYPHIMURIUM, Strain/Indicator: TA1538, Metabolic Activation: NONE, Method: VAPOR CHAMBER): inactive; negative; mutagenic call (Test System: AMES SALMONELLA TYPHIMURIUM, Strain/Indicator: TA1538, Metabolic Activation: RAT, LIVER, S-9, AROCLOR 1254, Method: DESICCATOR): inactive; negative; mutagenic call (Test System: AMES SALMONELLA TYPHIMURIUM, Strain/Indicator: TA1538, Metabolic Activation: RAT, LIVER, S-9, AROCLOR 1254, Method: VAPOR CHAMBER): inactive; negative; mutagenic call (Test System: MOUSE LYMPHOMA, Strain/Indicator: L5178Y (TK+/TK-), Metabolic Activation: NONE, Method: SUSPENSION/PLATE): inactive; negative; mutagenic call (Test System: MOUSE LYMPHOMA, Strain/Indicator: L5178Y (TK+/TK-), Metabolic Activation: RAT, LIVER, S-9, AROCLOR 1254, Method: SUSPENSION/PLATE): inactive; negative

With `[CH]#[W]` as the molecule, how does the mutagenic call (End Point: IN VITRO MICRONUCLEUS, Test System: HUMAN LYMPHOCYTES, Metabolic Activation: NONE) read?
Its mutagenic call is “active; positive”.

What does the source list for `COc1c(N)cc(C)c(N)c1C`?
mutagenic call [1]: inactive; negative; mutagenic call [2]: inactive; negative; mutagenic call [3]: inactive; negative; mutagenic call [4]: inactive; negative; mutagenic call [5]: inactive; negative; mutagenic call [6]: inactive; negative; mutagenic call [7]: inactive; negative; mutagenic call [8]: inactive; negative; mutagenic call [9]: inactive; negative; mutagenic call [10]: inactive; negative
